{"source": "patent US10457654B2", "about": "(GENENTECH, INC., priority 2017, dated 2019)", "key": {"hNav1.7 [1]": {"molecular_target": "T1, hNav1.7 (Homo sapiens (Human), UniProt Q15858)", "test": "Tritiated compound binding to membranes from cells expressing hNav1.7 and the β1 subunit, modified protocol (LBA, Ex. 243B)", "details": "300 pM [3H]compound, room temperature, read-out: Nav1.7 LBA (Ex. 243B) IC50"}, "hNav1.7 [2]": {"molecular_target": "T1, hNav1.7", "test": "Patch voltage clamp electrophysiology assay (EP), Syncropatch 384PE, CHO cells expressing Nav1.7", "assay_type": "cell-based", "details": "holding potential -50 mV; […] compound incubation; read-out: EP_SP hNav1.7 (Ex. 243B) IC50", "how_it_was_run": "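Automated whole-cell patch clamp on CHO cells stably expressing human Nav1.7, CsCl/EGTA internal and NMDG/80 mM Na+ external (pH 7.4). From −50 mV holding, −10 mV step, 20 ms recovery at −150 mV, then second −10 mV pulse where block is measured; inhibition after 7.5 min compound incubation.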"}}, "note": "pIC50: −log10 of the molar value. Counter-ions that a name gives are not always drawn."}
{"smiles": "CN(C)[C@H]1C[C@@H]2C[C@@H]2C[C@@H]1Nc1cc(F)c(S(=O)(=O)Nc2nccs2)cc1Cl", "note": "[Example 216]", "values": [{"measurement": "pIC50", "setting": "hNav1.7 [1]", "value": 7.14}, {"measurement": "pIC50", "setting": "hNav1.7 [2]", "value": 8.32}]}
{"smiles": "CN(C)[C@@H]1C[C@H]2C[C@H]2C[C@H]1Nc1cc(F)c(S(=O)(=O)Nc2nccs2)cc1Cl", "note": "[Example 217, 5-Chloro-4-(((1S,3R,4R,6R)-4-(dimethylamino)bicyclo[4.1.0]heptan-3-yl)amino)-2-fluoro-N-(thiazol-2-yl)benzenesulfonamide]", "values": [{"measurement": "pIC50", "setting": "hNav1.7 [1]", "value": 5.92}, {"measurement": "pIC50", "setting": "hNav1.7 [2]", "value": 6.95}]}
{"smiles": "CN(C)[C@H]1C[C@H](c2cccc(C(F)(F)F)c2)CC[C@@H]1Nc1cc(F)c(S(=O)(=O)Nc2ccncn2)cc1Cl", "note": "[Example 218, 5-chloro-4-(((1S,2S,4R)-2-(dimethylamino)-4-(3-(trifluoromethyl)phenyl)-cyclohexyl)amino)-2-fluoro-N-(pyrimidin-4-yl)benzenesulfonamide]", "values": [{"measurement": "pIC50", "setting": "hNav1.7 [1]", "value": 7.68}, {"measurement": "pIC50", "setting": "hNav1.7 [2]", "value": 8.80}]}
{"smiles": "CN(C)[C@H]1C[C@@H](c2cccc(C3CC3)c2)CC[C@@H]1Nc1cc(F)c(S(=O)(=O)Nc2ccncn2)cc1Cl", "note": "[Example 219, 5-chloro-4-(((1S,2S,4S)-4-(3-cyclopropylphenyl)-2-(dimethyamino)cyclohexyl)amino)-2-fluoro-N-(pyrimidin-4-yl)benzenesulfonamide]", "values": [{"measurement": "pIC50", "setting": "hNav1.7 [1]", "value": 8.77}, {"measurement": "pIC50", "setting": "hNav1.7 [2]", "value": 9.03}]}
{"smiles": "O=S(=O)(Nc1ccncn1)c1cc(Cl)c(N[C@H]2CCCC[C@@H]2N2CCC[C@](F)(CO)C2)cc1F", "note": "[Example 221, 5-Chloro-2-fluoro-4-(((1S,2S)-2-((R)-3-fluoro-3-(hydroxymethyl)piperidin-1-yl)cyclohexyl)amino)-N-(pyrimidin-4-yl)benzenesulfonamide]", "values": [{"measurement": "pIC50", "setting": "hNav1.7 [1]", "value": 6.53}, {"measurement": "pIC50", "setting": "hNav1.7 [2]", "value": 7.20}]}
{"smiles": "O=S(=O)(Nc1ccncn1)c1cc(Cl)c(N[C@H]2CCCC[C@@H]2N2CCC[C@@](F)(CO)C2)cc1F", "note": "[Example 222, 5-Chloro-2-fluoro-4-(((1S,2S)-2-((S)-3-fluoro-3-(hydroxymethyl)piperidin-1-yl)cyclohexyl)amino)-N-(pyrimidin-4-yl)benzenesulfonamide]", "values": [{"measurement": "pIC50", "setting": "hNav1.7 [1]", "value": 6.33}, {"measurement": "pIC50", "setting": "hNav1.7 [2]", "value": 6.91}]}
{"smiles": "CCCc1cccc([C@H]2CC[C@H](Nc3cc(F)c(S(=O)(=O)Nc4ccncn4)cc3Cl)[C@@H](N(C)C)C2)c1", "note": "[Example 223, 5-Chloro-4-(((1S,2S,4S)-2-(dimethylamino)-4-(3-propylphenyl)cyclohexyl)amino)-2-fluoro-N-(pyrimidin-4-yl)benzenesulfonamide]", "values": [{"measurement": "pIC50", "setting": "hNav1.7 [1]", "value": 8.01}, {"measurement": "pIC50", "setting": "hNav1.7 [2]", "value": 8.84}]}
{"smiles": "CN(C)[C@H]1C[C@@H](c2ccc(C(F)(F)F)cc2)CC[C@@H]1Nc1cc(F)c(S(=O)(=O)Nc2ccncn2)cc1Cl", "note": "[Example 224, 5-Chloro-4-(((1S,2S,4S)-2-(dimethylamino)-4-(4-(trifluoromethyl)phenyl)cyclohexyl)amino)-2-fluoro-N-(pyrimidin-4-yl)benzenesulfonamide]", "values": [{"measurement": "pIC50", "setting": "hNav1.7 [1]", "value": 8.08}, {"measurement": "pIC50", "setting": "hNav1.7 [2]", "value": 8.63}]}
{"smiles": "CN(C)[C@H]1C[C@@H](c2cccc(OC(F)(F)F)c2)CC[C@@H]1Nc1cc(F)c(S(=O)(=O)Nc2ccncn2)cc1Cl", "note": "[Example 225, 5-Chloro-4-(((1S,2S,4S)-2-(dimethylamino)-4-(3-(trifluoromethoxy)phenyl)cyclohexyl)amino)-2-fluoro-N-(pyrimidin-4-yl)benzenesulfonamide]", "values": [{"measurement": "pIC50", "setting": "hNav1.7 [1]", "value": 9.19}, {"measurement": "pIC50", "setting": "hNav1.7 [2]", "value": 9.19}]}
{"smiles": "CN[C@H]1C[C@@H](c2cccc(C(F)(F)F)c2)CC[C@@H]1Nc1cc(F)c(S(=O)(=O)Nc2ccncn2)cc1Cl", "note": "[Example 226, 5-Chloro-2-fluoro-4-(((1S,2S,4S)-2-(methylamino)-4-(3-(trifluoromethyl)phenyl)cyclohexyl)amino)-N-(pyrimidin-4-yl)benzenesulfonamide]", "values": [{"measurement": "pIC50", "setting": "hNav1.7 [1]", "value": 8.84}, {"measurement": "pIC50", "setting": "hNav1.7 [2]", "value": 8.98}]}
{"smiles": "CN(C)[C@H]1C[C@@H](c2cccc(C(F)(F)F)c2)CC[C@@H]1Nc1cc(F)c(S(=O)(=O)Nc2ccncn2)cc1Br", "note": "[Example 227, 5-Bromo-4-(((1S,2S,4S)-2-(dimethylamino)-4-(3-(trifluoromethyl)phenyl)cyclohexyl)amino)-2-fluoro-N-(pyrimidin-4-yl)benzenesulfonamide]", "values": [{"measurement": "pIC50", "setting": "hNav1.7 [1]", "value": 9.16}, {"measurement": "pIC50", "setting": "hNav1.7 [2]", "value": 8.92}]}
{"smiles": "CN(C)[C@H]1C[C@@H](c2cccc(C(F)(F)F)c2)CC[C@@H]1Nc1cc(F)c(S(=O)(=O)Nc2ccon2)cc1Cl", "note": "[Example 228, 5-chloro-4-(((1S,2S,4S)-2-(dimethylamino)-4-(3-(trifluoromethyl)phenyl)cyclohexyl)amino)-2-fluoro-N-(isoxazol-3-yl)benzenesulfonamide]", "values": [{"measurement": "pIC50", "setting": "hNav1.7 [1]", "value": 8.24}, {"measurement": "pIC50", "setting": "hNav1.7 [2]", "value": 9.07}]}
{"smiles": "CN(C)[C@H]1C[C@H](c2cccc(C(F)(F)F)c2)CC[C@@H]1Nc1cc(F)c(S(=O)(=O)Nc2ccon2)cc1Cl", "note": "[Example 229, 5-chloro-4-(((1S,2S,4R)-2-(dimethylamino)-4-(3-(trifluoromethyl)phenyl)cyclohexyl)amino)-2-fluoro-N-(isoxazol-3-yl)benzenesulfonamide]", "values": [{"measurement": "pIC50", "setting": "hNav1.7 [1]", "value": 7.26}, {"measurement": "pIC50", "setting": "hNav1.7 [2]", "value": 8.08}]}
{"smiles": "CN(C)[C@H]1C[C@@H](c2cccc(C(F)(F)F)c2)CC[C@@H]1Nc1cc(F)c(S(=O)(=O)Nc2ccncn2)cc1C1CC1", "note": "[Example 230, 5-Cyclopropyl-4-(((1S,2S,4S)-2-(dimethylamino)-4-(3-(trifluormethyl)phenyl)cyclohexyl)amino)-2-fluoro-N-(pyrimidin-4-yl)benzenesulfonamide formate]", "values": [{"measurement": "pIC50", "setting": "hNav1.7 [1]", "value": 9.20}, {"measurement": "pIC50", "setting": "hNav1.7 [2]", "value": 8.82}]}
{"smiles": "CN(C)[C@H]1C[C@@H](c2cccc(Cl)c2)CC[C@@H]1Nc1cc(F)c(S(=O)(=O)Nc2ccncn2)cc1Cl", "note": "[Example 231, 5-Chloro-4-(((1S,2S,4S)-4-(3-chlorophenyl)-2-(dimethylamino)cyclohexyl)amino)-2-fluoro-N-(pyrimidin-4-yl)benzenesulfonamide formate]", "values": [{"measurement": "pIC50", "setting": "hNav1.7 [1]", "value": 8.65}, {"measurement": "pIC50", "setting": "hNav1.7 [2]", "value": 9.03}]}
{"smiles": "CN(C)[C@H]1C[C@@H](c2ccccc2)CC[C@@H]1Nc1cc(F)c(S(=O)(=O)Nc2ccncn2)cc1Cl", "note": "[Example 232, 5-chloro-4-(((1S,2S,4S)-2-(dimethyamino)-4-phenylcyclohexyl)amino)-2-fluoro-N-(pyrimidin-4-yl)benzenesulfonamide formate]", "values": [{"measurement": "pIC50", "setting": "hNav1.7 [1]", "value": 7.32}, {"measurement": "pIC50", "setting": "hNav1.7 [2]", "value": 7.98}]}
{"smiles": "CN(C)[C@H]1CN(c2cccc(C(F)(F)F)c2)CC[C@@H]1Nc1cc(F)c(S(=O)(=O)Nc2ccncn2)cc1Cl", "note": "[Example 233, 5-Chloro-4-(((3S,4S)-3-(dimethylamino)-1-(3-(trifluoromethyl)phenyl)piperidin-4-yl)amino)-2-fluoro-N-(pyrimidin-4-yl)benzenesulfonamide]", "values": [{"measurement": "pIC50", "setting": "hNav1.7 [1]", "value": 8.01}, {"measurement": "pIC50", "setting": "hNav1.7 [2]", "value": 8.77}]}
{"smiles": "CN(C)[C@@H]1CN(c2cccc(C(F)(F)F)c2)CC[C@H]1Nc1cc(F)c(S(=O)(=O)Nc2ccncn2)cc1Cl", "note": "[Example 234, 5-Chloro-4-(((3R,4R)-3-(dimethylamino)-1-(3-(trifluoromethyl)phenyl)piperidin-4-yl)amino)-2-fluoro-N-(pyrimidin-4-yl)benzenesulfonamide formate]", "values": [{"measurement": "pIC50", "setting": "hNav1.7 [1]", "value": 5.70}, {"measurement": "pIC50", "setting": "hNav1.7 [2]", "value": 6.88}]}
{"smiles": "C[N+](C)([O-])[C@H]1C[C@@H](c2cccc(C(F)(F)F)c2)CC[C@@H]1Nc1cc(F)c(S(=O)(=O)Nc2ccncn2)cc1Cl", "note": "[Example 235, (1S,2S,5S)-2-((2-Chloro-5-fluoro-4-(N-(pyrimidin-4-yl)sulfamoyl)phenyl)amino)-N,N-dimethyl-5-(3-(trifluoromethyl)phenyl)cyclohexanamine oxide]", "values": [{"measurement": "pIC50", "setting": "hNav1.7 [1]", "value": 7.93}, {"measurement": "pIC50", "setting": "hNav1.7 [2]", "value": 8.09}]}
{"smiles": "CN(C)[C@H]1C[C@@H](c2cccc(C(F)(F)F)c2)CC[C@@H]1Nc1cc(F)c(S(=O)(=O)Nc2ccncn2)cc1C1CCC1", "note": "[Example 236, 5-cyclobutyl-4-(((1S,2S,4S)-2-(dimethylamino)-4-(3-(trifluoromethyl)phenyl)cyclohexyl)amino)-2-fluoro-N-(pyrimidin-4-yl)benzenesulfonamide]", "values": [{"measurement": "pIC50", "setting": "hNav1.7 [1]", "value": 9.23}, {"measurement": "pIC50", "setting": "hNav1.7 [2]", "value": 8.80}]}
{"smiles": "CN(C)[C@H]1C[C@@H](c2cccc(C(F)(F)F)c2)CC[C@@H]1Nc1ccc(S(=O)(=O)Nc2ccncn2)c(F)c1", "note": "[Example 237, 4-(((1S,2S,4S)-2-(Dimethylamino)-4-(3-(trifluoromethyl)phenyl)cyclohexyl)amino)-2-fluoro-N-(pyrimidin-4-yl)benzenesulfonamide formate]", "values": [{"measurement": "pIC50", "setting": "hNav1.7 [1]", "value": 8.61}, {"measurement": "pIC50", "setting": "hNav1.7 [2]", "value": 8.97}]}
{"smiles": "CN(C)[C@H]1C[C@@H](c2cccc(C(F)(F)F)c2)CC[C@@H]1Oc1cc(F)c(S(=O)(=O)Nc2ccncn2)cc1Cl", "note": "[Example 238, 5-chloro-4-(((1S,2S,4S)-2-(dimethylamino)-4-(3-(trifluoromethyl)phenyl)cyclohexyl)oxy)-2-fluoro-N-(pyrimidin-4-yl)benzenesulfonamide]", "values": [{"measurement": "pIC50", "setting": "hNav1.7 [1]", "value": 8.26}, {"measurement": "pIC50", "setting": "hNav1.7 [2]", "value": 8.93}]}
{"smiles": "CN(C)[C@H]1C[C@@H](c2cccc(C(F)(F)F)c2)CC[C@@H]1Nc1cc(F)c(S(=O)(=O)Nc2ccncn2)cc1O", "note": "[Example 240, 4-(((1S,2S,4S)-2-(Dimethylamino)-4-(3-(trifluoromethyl)phenyl)cyclohexyl)amino)-2-fluoro-5-hydroxy-N-(pyrimidin-4-yl)benzenesulfonamide formate]", "values": [{"measurement": "pIC50", "setting": "hNav1.7 [1]", "value": 7.82}, {"measurement": "pIC50", "setting": "hNav1.7 [2]", "value": 8.54}]}
{"smiles": "COc1cc(S(=O)(=O)Nc2ccncn2)c(F)cc1N[C@H]1CC[C@H](c2cccc(C(F)(F)F)c2)C[C@@H]1N(C)C", "note": "[Example 241, 4-(((1S,2S,4S)-2-(Dimethylamino)-4-(3-(trifluoromethyl)phenyl)cyclohexyl)amino)-2-fluoro-5-methoxy-N-(pyrimidin-4-yl)benzenesulfonamide formate]", "values": [{"measurement": "pIC50", "setting": "hNav1.7 [1]", "value": 8.43}, {"measurement": "pIC50", "setting": "hNav1.7 [2]", "value": 8.83}]}
{"smiles": "O=S(=O)(Nc1ccncn1)c1cc(Cl)c(N[C@H]2CC[C@H](c3cccc(C(F)(F)F)c3)C[C@@H]2N2CCCC2)cc1F", "note": "[Example 242, 5-chloro-2-fluoro-N-(pyrimidin-4-yl)-4-(((1S,2S,4S)-2-(pyrrolidin-1-yl)-4-(3 (trifluoromethyl)phenyl)cyclohexyl)amino)benzenesulfonamide]", "values": [{"measurement": "pIC50", "setting": "hNav1.7 [1]", "value": 9.37}, {"measurement": "pIC50", "setting": "hNav1.7 [2]", "value": 9.74}]}
